Legend:
ApoB100 mice = experiment: Hypocholesterolemic effect in endogenous hyperlipidemia model, single i.p. dose; assay type: in vivo; settings: 50 mg/kg i.p., 12 hours
Experimental: All the animals included for the experimental process were 46-week old males of the ApoB100 strain, which strain has a deficiency in removing cholesterol from the blood which causes an abnormally high increase of plasma cholesterol. The experiments were conducted strictly following the Guidance on the Operation of Animals (Scientific Procedures, Act. 1986). The animals had their respective quarantine period and were treated with maximum precaution to minimize possible contaminations for inoculations and handling.
In order to conduct the experiment on the fasting animals, blood was extracted by ocular puncture. The plasma was obtained from said blood, in which plasma total cholesterol levels and levels of its fractions were determined prior to administration of the substances under study. Immediately after that, the animals were intraperitoneally inoculated with 50 mg/kg of each of the test compounds. Four animals were treated with the vehicle and were considered the control group. […] Finally, a third group of five mice received 50 mg/Kg of NST0037. Twelve hours after the treatments, blood was again extracted from the fasting animals and the plasma was obtained from said blood.

[1] = tested on: SK-N-MC (human neuroblastoma) line; experiment: Total cholesterol levels in neuronal cell line; assay type: cell-based; settings: acid compounds, 20 hours, absence of FBS
Experimental: To carry out this assay, the compounds were activated with NaOH until the lactone form was completely opened.
Both the Hep G2 (human hepatocarcinoma) line and the SK-N-MC (human neuroblastoma) line were obtained from the American Type Culture Collection (ATCC no. HB-8065 and HTB-10 respectively). In all cases strict rules of sterility were followed and the manipulation was performed in class II biological safety cabinets following European standard EN 12469. The cells maintained in passage were seeded in 96-well plates in MEM supplemented with 10% FBS, 2 mM L-glutamine, 1 mM sodium pyruvate, 0.1 mM non-essential amino acids and 0.05 mg/mL gentamicin. In the case of HepG2, 4×10^4 cells/well were seeded and in the case of SK-N-MC 5×10^4 cells/well were seeded. After 24 hours had elapsed from the seeding, the cells were deprived of FBS for 8 hours. The cells were then incubated with the treatments at various concentrations for 20 hours. After the incubation period, the cells were washed with PBS and lysed with a phosphate buffer with 0.5% Triton X-100. […]
The total cholesterol was quantified by means of enzymatic and fluorometric techniques. […] The fluorescence intensity was determined at 530 nm of excitation and 580 nm of emission by means of a fluorometer. The results were normalized by protein, which was determined by means of the BCA technique.

[2] = tested on: human neuroblastoma SK-N-MC cells; experiment: Protection against neuronal death induced by apoptosis (camptothecin), WST-1; assay type: cell-based; settings: 20 nM camptothecin
Experimental: The assay was performed on human neuroblastoma SK-N-MC cells in culture from the American Type Culture Collection (ATCC), in all cases strict rules of sterility were followed and the manipulation was performed in class II biological safety cabinets following European standard EN 12469. The cells were maintained in the following culture medium: Minimum Essential Medium Eagle (MEM) supplemented with 1 mM sodium pyruvate, 2 mM L-glutamine, 0.1 mM non-essential amino acids, 0.05 mg/ml gentamicin and 10% fetal bovine serum.
The inhibition caused by compound NST0037 of cell death caused by treatment with camptothecin generating cell cycle arrest was analyzed. Camptothecin is an inhibitor of Topoisomerase I, it therefore prevents DNA duplication and triggers cell cycle arrest and death due to apoptosis. These cells, not exceeding 15 passages, were seeded on 96-well plates treated for adherent cells with a cell concentration of 5×10^4 cells/well; 3 wells of the plate were seeded for each condition of the assay.
After 24 hours of cell incubation at 37° C. and 5% CO2, the cell treatments were performed with 100 μl of total volume for the following conditions: • Control: culture medium (medium) • Camptothecin (CPT): medium plus camptothecin 20 nM, causing death of 50% of the cells. • Camptothecin plus NST0037: medium plus camptothecin (20 nM) plus NST0037 at 1, 4, 10, 20, 40 or 100 μM.
The cells were incubated (at 37° C. and 5% CO2) with these treatments for 22 hours, after which time the WST-1 reagent (Roche) was added. The Test WST-1 is based on the measurement of metabolic activity. Cell damage causes the loss of the ability of cells to obtain the energy necessary to maintain their metabolic functions and cell growth, therefore the metabolically active (live) cells reduce tetrazolium salt to formazan by means of the succinate-tetrazolium reductase system (of the mitochondrial respiratory chain). The formazan which is formed can be detected colorimetrically since it has an absorbance of 440 nm. The reading was taken in a plate reader at 440 nm 2 hours after adding the reagent.

How did the HDL-c levels (ApoB100 mice) turn out when `CCC(CC)C(=O)O[C@H]1C[C@@H](C)C=C2C=C[C@H](C)[C@H](CC[C@@H]3C[C@@H](O)CC(=O)O3)[C@H]21` [NST0037, (1S,2S,6R,8S,8aR)-1,2,6,7,8,8a-hexahydro-3,7-dimethyl-8-[2-[(2R,4R)-tetrahydro-4-hydroxy-6-oxo-2H-pyran-2-yl]ethyl]-1-naphthalenyl-2-ethyl-butyrate] was run?
The HDL-c levels was “without changing”.

What about the LDL-c levels (ApoB100 mice) of the same compound?
Its LDL-c levels is “considerably reduced”.

And the VLDL-c levels (ApoB100 mice)?
The VLDL-c levels was “considerably reduced”.

And the “esterified cholesterol (EC) levels” value (ApoB100 mice)?
Its value is “reduced the EC levels in a similar manner”.

What about the “free cholesterol (FC) levels” value (ApoB100 mice) of the same compound?
Its value is “without changing FC levels”.

And the “plasma total cholesterol levels” value (ApoB100 mice; male ApoB100 mice)?
Its value is “significant hypocholesterolemic effect”.

What about the “reduction of total cholesterol levels” value [1] of the same compound?
The value was “reductions of cholesterol with both compounds were similar”.

And the “protection against death caused by camptothecin” value (“protection against death caused” below) ([2]; 4 μM NST0037)?
The value was 18%.

And the “protection against death caused” value ([2]; 10 μM NST0037)?
Its value is 28%.

What about the “protection against death caused” value ([2]; 40 μM NST0037) of the same compound?
The value was 27%.

And the “protection against death caused” value ([2]; 100 μM NST0037)?
Its value is 27%.
